Assay results from PubChem BioAssay (NCI).
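Cultured in 96-well plates, cells were exposed to test compound for 48 hours across five concentrations. The concentration for 50% growth inhibition is given as GI50. The concentration for full growth arrest is given as TGI.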 Where a SMILES comes first, the peptide text is derived from it. [ ]: non-standard residue; d: D form.

Assays:
Assay in all cases: NCI-60 cell line screen, 48 h
A549 NSCLC = tested on: A549 NSCLC
BT-549 breast = tested on: BT-549 breast
CAKI-1 renal = tested on: CAKI-1 renal
HCT-15 colon = tested on: HCT-15 colon
MDA-N = tested on: MDA-N
SF-295 CNS = tested on: SF-295 CNS
SK-OV-3 ovarian = tested on: SK-OV-3 ovarian
SN12C renal = tested on: SN12C renal
UACC-257 melanoma = tested on: UACC-257 melanoma
UO-31 renal = tested on: UO-31 renal
RPMI-8226 leukemia = tested on: RPMI-8226 leukemia

Compound | TGI (A549 NSCLC) | TGI (BT-549 breast) | TGI (CAKI-1 renal) | TGI (HCT-15 colon) | TGI (MDA-N) | TGI (SF-295 CNS) | TGI (SK-OV-3 ovarian) | TGI (SN12C renal) | TGI (UACC-257 melanoma) | TGI (UO-31 renal) | TGI (RPMI-8226 leukemia) | GI50 (SF-295 CNS) | GI50 (SN12C renal)
CC(=O)C(CN1C(=O)c2ccccc2C1=O)C(C)=O | > 100 µM | > 100 µM | > 100 µM | > 100 µM | > 100 µM | > 100 µM | > 100 µM | > 100 µM | > 100 µM | > 100 µM |  |  | 
COC(=O)/C1=C/C=C\C[C@@]2(C)CC(c3ccoc3)OC(=O)[C@@H]2CC[C@H]1C (some centres undefined) | > 25 µM | > 25 µM | > 25 µM | > 25 µM | > 25 µM | > 25 µM | > 25 µM | > 25 µM | > 25 µM | > 25 µM |  |  | 
COc1cc2nc(-c3cccs3)nc(Nc3ccccc3C(=O)NN)c2cc1OC | > 100 µM | > 100 µM | > 100 µM | > 100 µM |  | > 100 µM | > 100 µM | > 100 µM | > 100 µM | > 100 µM | > 100 µM |  | 
O=C(O)c1cc(NCc2cc(O)ccc2O)ccc1O | > 100 µM | > 100 µM | > 100 µM | > 100 µM | 55.1 µM | > 100 µM | > 100 µM | > 100 µM | > 100 µM | > 100 µM |  |  | 
O=C1Sc2ccccc2C(=O)N2CCSC12 (centres undefined) |  |  |  | > 100 µM |  | > 100 µM | > 100 µM | > 100 µM | > 100 µM | > 100 µM | > 100 µM |  | 
OC(CCN1CCN(CCOC(c2ccccc2)c2ccccc2)CC1)c1ccccc1 (centres undefined) | > 100 µM | 60.5 µM | > 100 µM | 37.1 µM | 36.8 µM | 38.8 µM | > 100 µM | 82.3 µM | 34.8 µM | 44 µM |  |  | 
COC(=O)/C=C1\C(CO[Si](C)(C)C(C)(C)C)OC(n2cc(C)c(=O)n(C)c2=O)C1O[Si](C)(C)C(C)(C)C (centres undefined) | > 100 µM |  |  | > 100 µM | > 100 µM | > 100 µM | > 100 µM | > 100 µM |  | > 100 µM | > 100 µM |  | 
N#CC1=C(O)NC(O)=C(C#N)C1c1c(Cl)cccc1Cl | > 100 µM |  | > 100 µM | 51.9 µM |  | > 100 µM | 69.1 µM | > 100 µM | > 100 µM | > 100 µM | > 100 µM |  | 
O/N=C1\C/C(=N\O)c2c(Br)sc(Br)c21 | > 100 µM | > 100 µM | 60 µM | 41.7 µM | > 100 µM | > 100 µM | > 100 µM | > 100 µM | > 100 µM | > 100 µM |  |  | 
O=C1CCC2(O)c3ccccc3C2Cc2ccccc21 (centres undefined) |  |  |  |  |  | > 100 µM |  | > 100 µM | > 100 µM |  | > 100 µM |  | 
O=C1C(Cl)N(c2ccc([N+](=O)[O-])cc2)C1c1c[nH]c2ccccc12 (centres undefined) | > 100 µM |  |  |  |  | > 100 µM | > 100 µM | > 100 µM | > 100 µM | > 100 µM | > 100 µM |  | 
Clc1ccc(C2SCc3nc4ccccc4n32)cc1 (centres undefined) |  |  | 73.9 µM | > 100 µM |  | > 100 µM | 69.9 µM | 42.7 µM |  | 41.7 µM | 44.1 µM |  | 
N=C(N)SCc1nc(-c2ccc(Cl)cc2)no1 | > 100 µM | 50.6 µM | 27.4 µM | 55.9 µM |  | > 100 µM | > 100 µM | 37.5 µM | > 100 µM |  | 26.8 µM |  | 
CC(C)C[C@H](NC(=O)[C@H](CC(C)C)NC(=O)[C@@H](Cc1c[nH]c2ccccc12)NC(=O)[C@H](Cc1ccccc1)NC(=O)[C@@H](Cc1c[nH]c2ccccc12)NC(=O)[C@H](CCC(N)=O)NC(=O)[C@@H](CCC(N)=O)NC(=O)[C@@H]1CCCN1C(=O)[C@@H](CCCCN)NC(=O)[C@H]1CCCN1C(=O)[C@H](N)CCCN=C(N)N)C(N)=O (H-[dR][dP][dK]P[dQ]Q[dW]F[dW]LL-NH2) | > 100 µM |  |  | > 100 µM |  | > 100 µM | > 100 µM | > 100 µM | > 100 µM | > 100 µM | > 100 µM |  | 
Cc1cc(C)[n+]2c(c1)C=CC2 | > 100 µM |  | > 100 µM |  |  | 71.8 µM |  | > 100 µM | > 100 µM | > 100 µM |  |  | 
O=S(=O)(O)c1cc(S(=O)(=O)O)c2cc(N=Nc3ccc(N=Nc4ccc(/C=C/c5ccc(N=[N+]([O-])c6ccc(/C=C/c7ccc(N=Nc8ccc(N=Nc9ccc%10cc(S(=O)(=O)O)cc(S(=O)(=O)O)c%10c9)cc8)cc7S(=O)(=O)O)c(S(=O)(=O)O)c6)cc5S(=O)(=O)O)c(S(=O)(=O)O)c4)cc3)ccc2c1 | > 100 µM |  |  | > 100 µM |  | > 74.3 µM | > 100 µM | > 100 µM | > 100 µM | > 100 µM | > 100 µM |  | 
CN(C)C(=O)N1N[C@H](c2ccccc2)[C@@H]1c1ccccc1 | > 100 µM |  | > 100 µM | > 100 µM | > 100 µM | > 100 µM | > 100 µM | > 100 µM | > 100 µM | > 100 µM | > 100 µM |  | 
N#CCCN(CCCCN(CCC#N)C(=O)Nc1ccccc1)C(=O)Nc1ccccc1 | > 100 µM | > 100 µM | > 100 µM | > 100 µM | > 100 µM | > 100 µM | > 100 µM | > 100 µM |  | > 100 µM | > 100 µM |  | 
CC1(C)CCC2=C(O1)c1ccccc1C(=Nc1ccc([N+](=O)[O-])cc1)C2=O | 30 µM | 44 µM | 32.2 µM | > 100 µM | 28.1 µM | 29.9 µM | 34.8 µM | 29.3 µM | 30.1 µM | 22.4 µM |  | 14.9 µM | 15.9 µM
CC(C)OC1=C(CC2(C)OCCO2)C(=O)C12OCCO2 | > 100 µM | > 100 µM | > 100 µM | > 100 µM |  | > 100 µM | > 100 µM | > 100 µM | > 100 µM | > 100 µM |  |  | 
COP(=O)(CP(=O)(OC)OCCC(C)CCC=C(C)C)OC (centres undefined) | > 100 µM | > 100 µM | > 100 µM | > 100 µM | > 100 µM | > 100 µM | > 100 µM | > 100 µM | > 100 µM | > 100 µM |  |  | 
COc1ccc(/C(=N/O)c2ccccc2C2=Nc3ccccc3C(NCc3ccccc3)O2)cc1C (centres undefined) | > 100 µM |  | > 100 µM | > 100 µM | > 100 µM | 67.3 µM | 82.5 µM | > 100 µM | 41.9 µM | 67.5 µM | > 100 µM |  | 
